# Results from article doi:10.1101/2024.05.17.594634, “Protein Structure Inspired Drug Discovery” (bioRxiv, 2024).
# Legend:
# [1] = test system: PC3-M prostate cancer cells; assay: Eight-day colony formation assay, PC3-M; type: cell-based, human
# Procedure: (§1) We sought to identify compounds that would inhibit the growth of cancer cells, but that also did so selectively. Inhibition of cancer cell growth is a highly sought after attribute of anticancer agents. This was assessed by measuring the ability of a compound to inhibit cell growth in eight-day colony formation assays, examining concentrations ranging from 0.017 to 40 μM. Breast, colon, lung and prostate cancer are four of the most common causes of cancer in the United States, are major causes of cancer cell death, and were examined.[64] Two cell lines for each cancer type were assessed: A549 (adenocarcinoma) and H226 (squamous carcinoma) for lung, MCF-7 (estrogen receptor [ER] positive) and MDA-MB-231 (ER negative) for breast, LNCaP (androgen receptor [AR] positive) and PC3-M (AR negative) for prostate, and HCT116 (wild type p53, mutated KRAS) and HT29 (p53 mutant) for colon.[65]
# (§2) In considering effect on cancer cells, for each compound and each cell line tested we calculated the efficacy ratio, i.e., efficacy ratio = (percent of remaining cancer cell colonies)/(percent of remaining bone marrow colonies), at 8 days after treatment with 40 μM compound (S4 Fig). We considered those with an efficacy ratio below 0.5 as active and at least partially selective. The stringency of this is highlighted by considering the effect of 5FU on colon cancer, where it is frequently used clinically in proven curative settings, as well as proven life prolonging settings.[70, 71] […] Even at 5.7 μM, where 5FU is toxic to bone marrow, with hematopoietic colony formation at 38% of control, the efficacy ratio for HT29 cells has only dropped to 0.52. […] It can be seen that compounds segregate to protein sites. Specifically, of 10 compounds meeting this activity criteria (i.e., efficacy ratio <0.5), 3 were directed at the Dxr2 site, 3 at FolC2, 2 at FolC1, 1 at Dxr1 and 1 at TYLT.
# (§3) Eight-day colony formation assays of cancer cells were performed as described by us.[87] Briefly, 0.5–1.0 × 10^3 cells were seeded into a 12 well plate, after 24 hours compound added and eight days later colonies (of 3 or more cells) were scored after trypan blue staining. Conditions were in replicates of N = 2. All compounds were stored under desiccated conditions in a sealed container at minus 20°C upon arrival. One day prior to use, they were placed into DMSO, stored at […] as stock solutions, thawed just prior to use, and not reused.
# [2] = test system: MCF-7 breast cancer cells; assay: Eight-day colony formation assay, MCF-7; type: cell-based, human
# Procedure: as §1, §2, §3
# M14 cells = assay: Western blot for cleaved caspase 3, M14; type: cell-based, human; settings: 3 days, up to 10 μM
# Procedure: Fig 8. Dxr2-017 inhibits melanoma cell growth through induction of anoikis. (A) Inhibition of melanoma cell growth. Cells were treated with different concentrations of Dxr2-017 and formation of colonies at eight days depicted. Data are expressed as percent of untreated control and are the mean ± SEM (N=3 replicates) of a single experiment. (B) No effect on cycle progression. M14 and SK-MEL-5 cells were treated for 8 days with 20 and 50 nM Dxr2-017, respectively, and phase of cell cycle determined by flow cytometry. Data are the mean ± SEM (N=3). *denotes P-value ≤0.05. (C) Transition to floating cells. Cells were treated for three days with different Dxr2-017 concentrations. Depicted are representative light photomicrographs at 20X; scale bar is150 μm. Blue and green arrows denote adherent and floating cells, respectively. (D) Cleaved caspase 3 is induced in floating cells. Cells were treated for 3 days, cell lysate from only adherent cells, or from adherent and floating cells combined, was probed by Western blot for cleaved caspase 3. All experiments were repeated at separate times, yielding similar results.
# We then assessed whether Dxr2-017 was inducing apoptosis. […] These findings raised the possibility that Dxr2-017 was inducing anoikis, a process in which programmed cell death occurs upon cell detachment.[72, 73] […]
# H226 lung cancer cells = assay: Eight-day colony formation assay, H226; type: cell-based, human
# Procedure: as §1, §2, §3
# human CD34+ stem cells = assay: Bone marrow stem cell (hematopoietic) colony formation assay; type: cell-based
# Procedure: In parallel with measuring growth inhibition of cancer cell growth, we measured effect on human hematopoietic stem cells. Hematopoietic stem cells reside in the bone marrow and are the source of mature cells present in blood.[66] Bone marrow is one of the most sensitive organs in the body to drug toxicity, especially so for anticancer drugs where it can approach 100%.[67–69] Bone marrow toxicity was measured by performing hematopoietic colony formation assays on human CD34+ stem cells. The stem cell nature of this assay permitted assessment of trilineage colony formation: granulocytic (white blood cells), erythrocytic (red blood cells) and megakaryocytic (platelets), measured by the formation of CFU-GM (colony-forming-granulocyte-macrophage), BFU-E (erythroid burst-forming unites) and CFU-GEMM (colony-forming unit-granulocyte, erythrocyte, monocyte, megakaryocyte) colonies, respectively. Two measurements were taken. Total colonies at eight days were measured, thereby matching the eight-day time frame of cancer cell colony formation assays. At fourteen days, individual colonies have differentiated, permitting quantification of each lineage. Human hematopoietic stem cell trilineage colony formation assays were performed as previously described by us.[65] Briefly, human cord blood CD34+ cells (catalog #: 70008.5) were purchased from StemCell Technology Inc., and seeded at 1 × 10^4 cells per 35 mm dish. Cells were cultured in MethoCult™ Express (StemCell Technologies, Inc.) semisolid media, per manufacturer’s instructions, in the presence of compound or vehicle control. At eight days colonies, i.e., groups of ≥ 10 cells, were counted. At fourteen days, individual colonies of BFU-E, CFU-GM and CFU-GEMM were identified based on manufacturers’ morphologic characterization criteria. Assays were run in replicates of N = 2; some were run in replicates of N = 3, as denoted.
# HT116 colon cancer cells = assay: Eight-day colony formation assay, HT116; type: cell-based, human
# Procedure: as §1, §2, §3
compound,measurement,setting,value
c1ccc2sc(-c3ccc(CNc4ccc5nnnn5n4)o3)nc2c1 [Dxr2-017],efficacy ratio (cancer cell colonies to bone marrow colonies at 8 days),[1]; 5.7 μM,0.41
same,efficacy ratio (cancer cell colonies to bone marrow colonies at 8 days),[1]; 40 μM,0.00
same,efficacy ratio (cancer cell colonies to bone marrow colonies at 8 days),[2]; 5.7 μM,0.39
same,efficacy ratio (cancer cell colonies to bone marrow colonies at 8 days),[2]; 40 μM,0.02
same,"cleaved caspase 3, adherent cells only",M14 cells,did not detect any induction of cleaved caspase 3
same,"cleaved caspase 3, floating and adherent cells combined",M14 cells,clear formation
same,efficacy ratio (cancer cell colonies to bone marrow colonies at 8 days),H226 lung cancer cells; 5.7 μM,0.12
same,efficacy ratio (cancer cell colonies to bone marrow colonies at 8 days),H226 lung cancer cells; 40 μM,0.02
same,"mean number of colonies, % of control, 14 day","human CD34+ stem cells; 40 μM compound, 14 days, mean N=2",57 % of control
same,"mean number of colonies, % of control, 8 day","human CD34+ stem cells; 40 μM compound, total colonies at 8 days, mean N=2",70 % of control
same,decrease of BFU-E compared to control,"human CD34+ stem cells; 40 μM, 14 day",97.1 ± 4.1%
same,decrease of CFU-G/M compared to control,"human CD34+ stem cells; 40 μM, 14 day",49.8 ± 0.0%
same,increase of CFU-GEMM compared to control,"human CD34+ stem cells; 40 μM, 14 day",16.1 ± 12.0%
same,inhibition of 14-day total colony formation,"human CD34+ stem cells; 40 μM, 14 day",42.6 ± 5.8%
same,efficacy ratio (cancer cell colonies to bone marrow colonies at 8 days),HT116 colon cancer cells; 5.7 μM,0.69
same,efficacy ratio (cancer cell colonies to bone marrow colonies at 8 days),HT116 colon cancer cells; 40 μM,0.08
